Results: patent US20130005762A1, “COMBINATION OF DROLOXIFENE AND CLOPIDOGREL” (TCP Innovations Limited, priority 2009, published 2013)
“Also recorded” adds a separate entry of the source. Counter-ions that a name gives are not always drawn.

Legend:
[1] = tested on: rat aortic smooth muscle cells; test: TGF-beta Production Stimulator functional assay: suppression of smooth muscle cell proliferation reversible by neutralising anti-TGF-beta1 antibody; format: cell-based, Wistar rat; conditions: compared side-by-side with Tamoxifen
Excerpt: In order compare Droloxifene with other triphenylethylenes, we have exploited a functional assay for TGF-beta1 activity. Alternative approaches are less suitable for various reasons: it is not possible to directly measure TGF-beta protein production by cultured cells in response to triphenylethylenes because the TGF-beta that is produced remains associated with the cells or the extracellular matrix and is therefore not available for assay (for example, by ELISA) in the conditioned medium from the cultured cells. […] The specificity of such an assay is achieved by comparing the rate of proliferation of the smooth muscle cells in the presence or absence of a validated, highly specific neutralising antibody against TGF-beta (or TGF-beta1, as required).
The cells were prepared by enzyme dispersion of isolated rat aortae exactly as described previously (Grainger et al (1993) Biochem. J. 294(1):109-12 and the references therein). The cells were cultured (37° C.; 5% CO2) in DMEM+10% foetal calf serum (FCS), and subcultured every 4 days at 1:2 dilution, using 0.02% trypsin/EDTA (Gibco). Experiments were performed between the sixth and twentieth subculture.
For the experiments, the cells were subcultured into 12-well cluster plates, and allowed to grow for 24 hrs. […] The cells were then incubated for 72 hrs. All treatment conditions were established in triplicate. One triplicate of cells was counted (see below) at Oh. All other wells were counted at 72 hrs.
The number of cells in each well was determined as follows: the well was washed three times with serum-free DMEM, aspirated and then incubated with 100 μl of trypsin/EDTA solution (Gibco) for 2 minutes at 37° C. Complete release of the cell monolayer was confirmed microscopically. The cell density in portion of this suspension was determined by counting using an Improved Neubauer hameocytometer, ensuring the suspension was uniform by gentle pipetting, prior to sampling. The cell density was converted to the absolute number of cells present in the well by multiplying the number of cells per μl by the total volume of suspension (100 μl). For each condition, the mean number of cells at the end of the experiment was calculated by meaning the number of cells in each well of triplicate.
The extent of proliferation of the cell culture under each condition was determined by subtracting the mean number of cells at time Oh from the mean number of cells under that condition at time 72 h. The amount of TGF-beta1 activity under each condition was determined by subtracting the inhibition of growth achieved in the presence of neutralising anti-TGF-beta1 antibody (AB-101-NA; R&D Systems) from the inhibition of growth achieved in the absence of antibody.

[2] = Effect of co-administered triphenylethylenes on clopidogrel metabolism in vivo (CLP*-acetamide by LC-MS); design: species or system Sprague-Dawley rats; conditions: oral gavage; for effect on clopidogrel metabolism (in words): 0.1 to 10 mg/kg with 10 mg/kg clopidogrel
Method: Adult male Sprague-Dawley rats are dosed with various triphenylethylenes at different doses from 0.1 mg/kg to 10 mg/kg (spanning the likely doses such compounds would be used in man), or with vehicle only, and simultaneously dosed with 10 mg/kg clopidogrel, both by oral gavage. Blood samples are drawn through an in-dwelling jugular catheter at 0.5, 1, 2, 4, 8 and 24 hrs post-dose, and serum is prepared by conventional methods well known in the art.
The level of CLP*, the active metabolite of clopidogrel is then determined in each blood sample by LC-MS by collecting the blood samples in tubes containing the thiol alkylating agent iodeoacetamide. Iodoacetamide reacts with CLP* to generate a stable product which can be detected by LC-MS using standard methodology well known in the art. An authentic sample of the acetamide adduct of CLP* is used to quantify the level of CLP*-acetamide in the sample. […] The concentration of CLP*-acetamide adduct can therefore be assumed to be proportional to the concentration of CLP*. The pharmacokinetics of CLP*-acetamide are then compared under the different conditions, using standard pharmacokinetics models implemented with WinNonLin.

[3] = Meta-analysis of cardiovascular outcomes of women treated with Tamoxifen (Braithwaite et al.); format: in vivo; conditions: translated from the relative risk
Excerpt: This translates to a 33% reduction in risk, which, if replicated among higher risk groups such as men, would result in at least 10,000 fewer deaths due to myocardial infarction in the UK alone each year, and five times that number in the US.

[4] = analog 0.1 mg/kg with 10 mg/kg clopidogrel
[5] = analog 1 mg/kg with 10 mg/kg clopidogrel
[6] = analog 10 mg/kg with 10 mg/kg clopidogrel

effect on clopidogrel metabolism (in words) [2]	Compound	TGF-beta Production Stimulator activity (in words) [1]	effect on clopidogrel metabolism (in words) ([2]; listed as droloxifene)	% inhibition of CLP*-acetamide Cmax compared to vehicle control [2, 4]	% inhibition of CLP*-acetamide Cmax compared to vehicle control [2, 5]	% inhibition of CLP*-acetamide Cmax compared to vehicle control [2, 6]	TGF-beta Production Stimulator activity (in words) ([1]; listed as raloxifene)	reduction in risk of death from myocardial infarction [3]
no effect on clopidogrel metabolism	CC/C(=C(/c1ccc(OCCN(C)C)cc1)c1cccc(O)c1)c1ccccc1 [Droloxifene, (E)-1-(4′-(2-dimethylaminoethoxy)phenyl)-1-(3-hydroxyphenyl)-2-phenylbut-1-ene]	comparable activity	no effect on the pharmacokinetics of clopidogrel	0%	−19%	−7%		
	CC/C(=C(\c1ccc(I)cc1)c1ccc(OCCN2CCCC2)cc1)c1ccccc1 [Idoxifene]			2%	6%	48%		
	O=C(c1ccc(OCCN2CCCCC2)cc1)c1c(-c2ccc(O)cc2)sc2cc(O)ccc12 [Raloxifene]	does not have measurable activity		−18%	11%		substantially less active; also recorded: does not stimulate the production of TGF-beta1	
	CC/C(=C(\c1ccccc1)c1ccc(OCCN(C)C)cc1)c1ccccc1 [Tamoxifen]							33%
	CC/C(=C(\c1ccccc1)c1ccc(OCCN(C)C)cc1)c1ccccc1 [tamoxifen citrate]	no difference						
